This is an account of results in paper PMC2954496 (Bioorganic & medicinal chemistry, 2010).

Series [1] is described as follows: Water solubility analysis by HPLC. The class given is physicochemical.
The test system of another series is HIV-RT. To be noted: preliminary mechanism of action studies; cited from earlier work.

≈ marks a conversion by molar mass, not a printed value.

For the compound `Cc1cc(=O)c2c(C)cc3c(c2o1)[C@@H](OC(=O)[C@@]12CC[C@@](C)(C(=O)O1)C2(C)C)[C@@H](OC(=O)[C@@]12CC[C@@](C)(C(=O)O1)C2(C)C)C(C)(C)O3` [Compound 5, 3′R,4′R-Di-O-(−)-camphanoyl-2,5,2′,2′-tetramethyldihydropyrano[2,3-f]chromone], in series [1], the solubility at 1 h stood at 5.2 µg/mL (≈ 7.99 µM).
As to `Cc1cc(=O)oc2c3c(ccc12)OC(C)(C)[C@H](OC(=O)[C@@]12CC[C@@](C)(C(=O)O1)C2(C)C)[C@@H]3OC(=O)[C@@]12CC[C@@](C)(C(=O)O1)C2(C)C` [Compound 4-MDCK, 4-methyl DCK], in the series on HIV-RT, the “Inhibition of HIV-RT DNA-dependent DNA polymerase activity” value is “inhibited”.
